Source: ChEMBL document CHEMBL1126257, “Fluoronaphthyridines and -quinolones as antibacterial agents. 5. Synthesis and antimicrobial activity of chiral 1-tert-butyl-6-fluoro-7-substituted-naphthyridones” (J Med Chem, 1992)
Converted amounts (≈) assume the structure as drawn.

Tests used:
Enterococcus faecium = assay: In vitro antibacterial activity against Enterococcus faecium A 24885.; type: functional
Enterobacter cloacae = assay: In vitro antibacterial activity against Enterobacter cloacae A 9656.; type: functional
Serratia marcescens = assay: In vitro antibacterial activity against Serratia marcescens A 20019.; type: functional
Pseudomonas aeruginosa [1] = assay: In vitro antibacterial activity against Pseudomonas aeruginosa A 9243.; type: functional
Staphylococcus aureus [2] = assay: In vitro antibacterial activity against Staphylococcus aureus A9537.; type: functional
Pseudomonas aeruginosa [3] = assay: (§1) In vivo potency on systemic infection caused by after oral administration to mice expressed as median protective dose.; type: functional; conditions: read-out: PD50
Escherichia coli [4] = assay: as §1; type: functional; conditions: read-out: PD50
Klebsiella pneumoniae [5] = assay: as §1; type: functional; conditions: read-out: PD50
Klebsiella pneumoniae [6] = assay: In vitro antibacterial activity against Klebsiella pneumoniae A 9664.; type: functional
Morganella morganii = assay: In vitro antibacterial activity against Morganella morganii A 15153.; type: functional
Enterococcus faecalis = assay: In vitro antibacterial activity against Enterococcus faecalis A9809.; type: functional
Staphylococcus aureus [7] = assay: animal or person; conditions: in Mus musculus, po, read-out: PD50
Description: In vivo potency on systemic infection caused by Staphylococcus aureus A9537 after oral administration to mice expressed as median protective dose.

Escherichia coli [8] = assay: In vitro antibacterial activity against Escherichia coli A 15119.; type: functional
Klebsiella pneumoniae [9] = assay: In vivo potency on systemic infection caused by Klebsiella pneumoniae A 9664 after oral administration to mice expressed as median protective dose.; type: functional; conditions: read-out: PD50
Escherichia coli [10] = assay: In vivo potency on systemic infection caused by Escherichia coli A 15119 after oral administration to mice expressed as median protective dose.; type: functional; conditions: read-out: PD50
Klebsiella pneumoniae [11] = assay: In vivo potency on systemic infection caused by after oral administration to mice expressed as median protective dose perorally; type: functional; conditions: read-out: PD50
Escherichia coli [12] = assay: In vivo potency on systemic infection caused Escherichia coli A 15119 by after oral administration to mice expressed as median protective dose.; type: functional; conditions: read-out: PD50
in vivo = conditions: mouse, po, 50 mg/kg
[13] = Enterococcus faecium, read-out: MIC
[14] = Enterobacter cloacae, read-out: MIC
[15] = Serratia marcescens, read-out: MIC
[16] = Pseudomonas aeruginosa, read-out: MIC
[17] = Staphylococcus aureus, read-out: MIC
[18] = Klebsiella pneumoniae, read-out: MIC
[19] = Morganella morganii, read-out: MIC
[20] = Enterococcus faecalis, read-out: MIC
[21] = Escherichia coli, read-out: MIC

| SMILES | MIC (Enterococcus faecium; [13]) [µg/mL] | MIC (Enterobacter cloacae; [14]) [µg/mL] | MIC (Serratia marcescens; [15]) [µg/mL] | MIC (Pseudomonas aeruginosa [1]; [16]) [µg/mL] | MIC (Staphylococcus aureus [2]; [17]) [µg/mL] | MIC (Klebsiella pneumoniae [6]; [18]) [µg/mL] | MIC (Morganella morganii; [19]) [µg/mL] | MIC (Enterococcus faecalis; [20]) [µg/mL] | MIC (Escherichia coli [8]; [21]) [µg/mL] | other results |
| --- | --- | --- | --- | --- | --- | --- | --- | --- | --- | --- |
| C[C@H]1CN(c2nc3c(cc2F)c(=O)c(C(=O)O)cn3C(C)(C)C)C[C@H]1N | 1 (≈ 2.76 µM) | 0.13 (≈ 0.359 µM) | 0.13 (≈ 0.359 µM) | 1 (≈ 2.76 µM) | 0.008 (≈ 0.0221 µM) | 0.5 (≈ 1.38 µM) | 0.13 (≈ 0.359 µM) | 0.25 (≈ 0.69 µM) | 0.016 (≈ 0.0441 µM) | ED50 (Pseudomonas aeruginosa [3]): 4.7 mg/kg; ED50 (Escherichia coli [4]): 1.4 mg/kg; ED50 (Klebsiella pneumoniae [5]): 3.9 mg/kg; ED50 (Staphylococcus aureus [7]): 1 mg/kg |
| C[C@H]1CN(c2nc3c(cc2F)c(=O)c(C(=O)O)cn3C(C)(C)C)C[C@@H]1N | 4 (≈ 11 µM) | 0.03 (≈ 0.0828 µM) | 0.5 (≈ 1.38 µM) | 2 (≈ 5.52 µM) | 0.015 (≈ 0.0414 µM) | 0.25 (≈ 0.69 µM) | 0.25 (≈ 0.69 µM) | 0.25 (≈ 0.69 µM) | 0.06 (≈ 0.166 µM) |  |
| CC(C)(C)n1cc(C(=O)O)c(=O)c2cc(F)c(N3CC[C@H](N)C3)nc21 | 0.5 (≈ 1.44 µM) | 0.13 (≈ 0.373 µM) | 0.13 (≈ 0.373 µM) | 0.13 (≈ 0.373 µM) | 0.0005 (≈ 0.00144 µM) | 0.03 (≈ 0.0861 µM) | 0.13 (≈ 0.373 µM) | 0.03 (≈ 0.0861 µM) | 0.015 (≈ 0.0431 µM) | ED50 (Klebsiella pneumoniae [9]): 3.5 mg/kg; ED50 (Escherichia coli [10]): 1.2 mg/kg |
| C[C@@H]1CN(c2nc3c(cc2F)c(=O)c(C(=O)O)cn3C(C)(C)C)C[C@@H]1N | 4 (≈ 11 µM) | 0.03 (≈ 0.0828 µM) | 0.5 (≈ 1.38 µM) | 1 (≈ 2.76 µM) | 0.015 (≈ 0.0414 µM) | 0.06 (≈ 0.166 µM) | 0.5 (≈ 1.38 µM) | 0.5 (≈ 1.38 µM) | 0.13 (≈ 0.359 µM) |  |
| C[C@@H]1CN(c2nc3c(cc2F)c(=O)c(C(=O)O)cn3C(C)(C)C)C[C@H]1N | 0.5 (≈ 1.38 µM) | 0.016 (≈ 0.0441 µM) | 0.25 (≈ 0.69 µM) | 0.5 (≈ 1.38 µM) | 0.002 (≈ 0.00552 µM) | 0.03 (≈ 0.0828 µM) | 0.25 (≈ 0.69 µM) | 0.06 (≈ 0.166 µM) | 0.016 (≈ 0.0441 µM) | ED50 (Klebsiella pneumoniae [11]): 0.81 mg/kg; ED50 (Pseudomonas aeruginosa [3]): 5.5 mg/kg; ED50 (Escherichia coli [4]): 2.1 mg/kg; ED50 (Staphylococcus aureus [7]): 1.2 mg/kg |
| C[C@H]1C[C@@H](N)CN1c1nc2c(cc1F)c(=O)c(C(=O)O)cn2C(C)(C)C | 2 (≈ 5.52 µM) | 0.03 (≈ 0.0828 µM) | 0.5 (≈ 1.38 µM) | 2 (≈ 5.52 µM) | 0.015 (≈ 0.0414 µM) | 0.06 (≈ 0.166 µM) | 0.5 (≈ 1.38 µM) | 0.25 (≈ 0.69 µM) | 0.03 (≈ 0.0828 µM) |  |
| CC1(C)CN(c2nc3c(cc2F)c(=O)c(C(=O)O)cn3C(C)(C)C)C[C@H]1N | 2 (≈ 5.31 µM) | 0.03 (≈ 0.0797 µM) | 0.5 (≈ 1.33 µM) | 2 (≈ 5.31 µM) | 0.015 (≈ 0.0398 µM) | 0.13 (≈ 0.345 µM) | 0.5 (≈ 1.33 µM) | 0.25 (≈ 0.664 µM) | 0.06 (≈ 0.159 µM) |  |
| C[C@@H]1C[C@H](N)CN1c1nc2c(cc1F)c(=O)c(C(=O)O)cn2C(C)(C)C | 2 (≈ 5.52 µM) | 0.25 (≈ 0.69 µM) | 2 (≈ 5.52 µM) | 8 (≈ 22.1 µM) | 0.13 (≈ 0.359 µM) | 0.25 (≈ 0.69 µM) | 2 (≈ 5.52 µM) | 0.5 (≈ 1.38 µM) | 0.25 (≈ 0.69 µM) |  |
| CC1(C)CN(c2nc3c(cc2F)c(=O)c(C(=O)O)cn3C(C)(C)C)C[C@@H]1N | 4 (≈ 10.6 µM) | 0.25 (≈ 0.664 µM) | 0.25 (≈ 0.664 µM) | 4 (≈ 10.6 µM) | 0.03 (≈ 0.0797 µM) | 0.25 (≈ 0.664 µM) | 0.25 (≈ 0.664 µM) | 4 (≈ 10.6 µM) | 0.06 (≈ 0.159 µM) |  |
| CC(C)(C)n1cc(C(=O)O)c(=O)c2cc(F)c(N3CC[C@@H](N)C3)nc21 | 1 (≈ 2.87 µM) | 0.06 (≈ 0.172 µM) | 0.25 (≈ 0.718 µM) | 0.25 (≈ 0.718 µM) | 0.015 (≈ 0.0431 µM) | 0.13 (≈ 0.373 µM) | 0.25 (≈ 0.718 µM) | 0.13 (≈ 0.373 µM) | 0.06 (≈ 0.172 µM) | ED50 (Escherichia coli [12]): 4.9 mg/kg; ED50 (Klebsiella pneumoniae [9]): 4.9 mg/kg |
| CN(C)[C@H]1CCN(c2nc3c(cc2F)c(=O)c(C(=O)O)cn3C(C)(C)C)C1 | 4 (≈ 10.6 µM) | 0.03 (≈ 0.0797 µM) | 1 (≈ 2.66 µM) | 2 (≈ 5.31 µM) | 0.03 (≈ 0.0797 µM) | 0.06 (≈ 0.159 µM) |  | 0.5 (≈ 1.33 µM) | 0.015 (≈ 0.0398 µM) |  |
| CN[C@@H]1CCN(c2nc3c(cc2F)c(=O)c(C(=O)O)cn3C(C)(C)C)C1 | 8 (≈ 22.1 µM) | 0.13 (≈ 0.359 µM) | 0.5 (≈ 1.38 µM) | 1 (≈ 2.76 µM) | 0.03 (≈ 0.0828 µM) | 0.13 (≈ 0.359 µM) | 0.5 (≈ 1.38 µM) | 1 (≈ 2.76 µM) | 0.06 (≈ 0.166 µM) |  |
| CN(C)C1CCN(c2nc3c(cc2F)c(=O)c(C(=O)O)cn3C(C)(C)C)C1 (stereo not drawn) | 8 (≈ 21.3 µM) | 1 (≈ 2.66 µM) | 1 (≈ 2.66 µM) | 1 (≈ 2.66 µM) | 0.03 (≈ 0.0797 µM) | 0.13 (≈ 0.345 µM) | 0.5 (≈ 1.33 µM) | 1 (≈ 2.66 µM) | 0.25 (≈ 0.664 µM) |  |
| CN[C@H]1CCN(c2nc3c(cc2F)c(=O)c(C(=O)O)cn3C(C)(C)C)C1 | 2 (≈ 5.52 µM) | 0.06 (≈ 0.166 µM) | 0.25 (≈ 0.69 µM) | 0.25 (≈ 0.69 µM) | 0.015 (≈ 0.0414 µM) | 0.06 (≈ 0.166 µM) | 0.25 (≈ 0.69 µM) | 1 (≈ 2.76 µM) | 0.03 (≈ 0.0828 µM) | ED50 (Pseudomonas aeruginosa [3]): 6.1 mg/kg; ED50 (Escherichia coli [4]): 1.2 mg/kg; ED50 (Klebsiella pneumoniae [5]): 2.6 mg/kg; ED50 (Staphylococcus aureus [7]): 0.31 mg/kg |
| C[C@@H]1C[C@@H](N)CN1c1nc2c(cc1F)c(=O)c(C(=O)O)cn2C(C)(C)C (stereo in doubt; 67) |  |  |  |  |  |  |  |  |  | MIC (Enterococcus faecium): 8 µg/mL (≈ 22.1 µM); MIC (Enterobacter cloacae): 0.5 µg/mL (≈ 1.38 µM); MIC (Serratia marcescens): 2 µg/mL (≈ 5.52 µM); MIC (Pseudomonas aeruginosa [1]): 16 µg/mL (≈ 44.1 µM); MIC (Staphylococcus aureus [2]): 0.13 µg/mL (≈ 0.359 µM); MIC (Klebsiella pneumoniae [6]): 0.5 µg/mL (≈ 1.38 µM); MIC (Morganella morganii): 4 µg/mL (≈ 11 µM); MIC (Enterococcus faecalis): 1 µg/mL (≈ 2.76 µM); MIC (Escherichia coli [8]): 0.25 µg/mL (≈ 0.69 µM) |
| C[C@@H]1C[C@@H](N)CN1c1nc2c(cc1F)c(=O)c(C(=O)O)cn2C(C)(C)C (stereo in doubt; 68) |  |  |  |  |  | 0.5 (≈ 1.38 µM) |  |  |  | MIC (Enterococcus faecium): 0.5 µg/mL (≈ 1.38 µM); MIC (Enterobacter cloacae): 0.13 µg/mL (≈ 0.359 µM); MIC (Serratia marcescens): 0.5 µg/mL (≈ 1.38 µM); MIC (Pseudomonas aeruginosa [1]): 0.5 µg/mL (≈ 1.38 µM); MIC (Staphylococcus aureus [2]): 0.002 µg/mL (≈ 0.00552 µM); ED50 (Pseudomonas aeruginosa [3]): 14.4 mg/kg; ED50 (Escherichia coli [4]): 2.6 mg/kg; ED50 (Klebsiella pneumoniae [5]): 8.2 mg/kg; MIC (Morganella morganii): 0.25 µg/mL (≈ 0.69 µM); MIC (Enterococcus faecalis): 0.03 µg/mL (≈ 0.0828 µM); ED50 (Staphylococcus aureus [7]): 0.9 mg/kg; MIC (Escherichia coli [8]): 0.016 µg/mL (≈ 0.0441 µM) |
| O=C(O)c1cn(C2CC2)c2cc(N3CCNCC3)c(F)cc2c1=O [CIPROFLOXACIN] | 4 (≈ 12.1 µM) |  | 0.03 (≈ 0.0905 µM) |  | 0.06 (≈ 0.181 µM) | 0.06 (≈ 0.181 µM) | 0.06 (≈ 0.181 µM) |  |  | ED50 (Pseudomonas aeruginosa [3]): 5 mg/kg; ED50 (Escherichia coli [4]): 0.7 mg/kg; ED50 (Klebsiella pneumoniae [5]): 1.5 mg/kg; ED50 (Staphylococcus aureus [7]): 4 mg/kg; Cmax (in vivo): 5900 ng/mL |
